{
  "source": "patent US20100055691A1",
  "about": "“SCREENING METHOD FOR THERAPEUTIC AGENT FOR AMYOTROPHIC LATERAL SCLEROSIS” (HISAMITSU PHARMACEUTICAL CO.,IN., priority 2006, published 2010)",
  "format_in_all_cases": "cell-based",
  "key": {"[1]": {"system": "Tollip and IRAK-1 complex", "experiment": "immunoprecipitation of the interaction between Tollip and IRAK-1", "details": "HEK293 cells transfected with Tollip-Myc-pcDNA3, 100 ng/mL TNF-α for 1 h", "protocol": "There has been a report that Tollip binds to IRAK-1 in IL-1R/TLR signaling. We examined whether this happened in TNF-α signaling also. The experiment was carried out by the immunoprecipitation method, which can verify binding of proteins. HEK293 cells were transfected with Tollip-Myc-pcDNA3. Then, after 24 h, some of the cells were treated for 1 h with 100 ng/mL of TNF-α while others were not treated. After that, the cells were lysed and immunoprecipitation […] was carried out. For the immunoprecipitation, Chrom PumPure mouse IgG (Jackson Immunoresearch) was used as the control, mouse anti-IRAK-1(F-4)SC-5288 (Santa Cruz) and mouse anti-Myc(9B11)#2276 (Santa Cruz) were used as primary antibodies, and goat anti-mouse SC-2005 (Santa Cruz) was used as the secondary antibody."}, "[2]": {"system": "NFκB activity in HEK293 cells", "experiment": "luciferase assay of induction of NFκB activity by TNF-α", "protocol": "Firstly, for establishing the experiment system, we screened various treatment times and doses of TNF-α to determine the optimum conditions for induction of NFκB activity by TNF-α. The luciferase assay was used for the screening. To be more specific, firstly, the NFκB gene was introduced upstream of LUC into pELAM1-Luc, which is a luciferase (LUC) reporter vector, and a vector for expressing NFκB/LUC fusion protein was prepared. Next, HEK293 cells were transfected with this expression vector. 24 h after the transfection, the cells were treated with 10 ng/mL of TNF-α for 1, 2, 4, 8, or 24 h. After that, the luciferase assay was carried out by a standard method, and the level of transcription of the NFκB, which was the target gene, was examined. FIG. 9 (A) confirms that highest NFκB activity was induced 1 h after the treatment with TNF-α.\nThe level of transcription of NFκB was measured using different concentrations of TNF-α: 10, 100, and 1000 ng/mL, keeping the treatment time constant at 1 h. FIG. 9 (B) confirms that the highest NFκB activity was induced with 100 ng/mL."}, "[3]": {"system": "Tollip", "experiment": "cell fractionation and western blotting of the intracellular localization of Tollip", "details": "HEK293 cells transfected with Tollip-Myc-pcDNA3, 100 ng/mL TNF-α up to 48 h", "protocol": "Firstly, the intracellular localization of alsin and Tollip was examined by cell fractionation and with western blotting. To be more specific, HEK293 cells were transfected with ALS2CR6-FLAG-pIRESpuro2 or Tollip-Myc-pcDNA3 and 24 h later, the cells were lysed and fractionated by a standard method. After that, western blotting (WB) was carried out. In the WB, lamin, which is localized in the cell nucleus only, and tubulin, which is localized in the cytoplasm only, were used as controls; mouse anti-lamin B (101-B7) NA12 (CALBIOCHEM) or mouse anti-tubulin (Ab-2) (clone DM1A) (LABVISION/NEOMARKERS) were used as primary antibodies, and goat anti-mouse SC-2005 (Santa Cruz) was used as the secondary antibody.\nNext, with HEK293 cells transfected with Tollip-Myc-pcDNA3, we examined how the intracellular localization of Tollip changed by TNF-α treatment. Treatment with 100 ng/mL of TNF-α was given up to 48 h and changes in localization of Tollip were checked at different time points."}, "[4]": {"system": "NFκB protein in HEK293 cells", "experiment": "western blotting of NFκB protein in cell nucleus and cytoplasm", "details": "100 ng/mL TNF-α for 1, 2, 4, 8 or 24 h", "protocol": "Furthermore, the expression level of the NFκB protein in the cell nucleus and the cytoplasm of HEK293 cells treated with 100 ng/mL of TNF-α for 1, 2, 4, 8, or 24 h was examined using western blotting (WB). For this WB, rabbit anti-NFκB p65(C-20) SC-372 (Santa Cruz) was used as the primary antibody and goat anti-rabbit SC-2004 (Santa Cruz) as the secondary antibody."}},
  "data": [
    {"substance": "TNF-α", "values": [
      {"measurement": "binding of Tollip and IRAK-1", "setting": "[1]", "result": "suppressed"},
      {"measurement": "treatment time at which highest NFκB activity was induced", "setting": "[2]; HEK293 cells, 10 ng/mL TNF-α for 1, 2, 4, 8 or 24 h", "result": 1, "unit": "h"},
      {"measurement": "concentration at which highest NFκB activity was induced", "setting": "[2]; HEK293 cells, 10, 100 and 1000 ng/mL, treatment time 1 h", "result": 100, "unit": "ng/mL"},
      {"measurement": "expression of Tollip", "setting": "[3]", "result": "decreased the expression of Tollip"},
      {"measurement": "intracellular localization of Tollip", "setting": "[3]", "result": "made Tollip to migrate to the cell nucleus"},
      {"measurement": "time of highest level of NFκB protein in the cell nucleus", "setting": "[4]", "result": 1, "unit": "h"}
    ]}
  ]
}
